Read-outs that look alike come from different tables or passages of the source.
Legend:
[1] = system: MC3T3E1 cells; test: qRT-PCR of osteoblast differentiation markers in MC3T3E1 cells; format: cell-based, murine; conditions: dose‐dependent
Procedure: Figure 5 Effects of KY‐02327 on Wnt/β‐catenin pathway and osteoblast differentiation in osteoblasts • A MC3T3E1 cells were transfected with pTOPFLASH together with pCMV‐β‐gal. After 24 h, the cells were treated with indicated dose of KY‐02327 for 2 days. The luciferase activities of whole‐cell lysates were measured and normalized with β‐galactosidase activities. (n = 3) • B, C MC3T3E1 cells were treated with indicated concentrations of KY‐02327 for 2 days. β‐Catenin and α‐tubulin were detected by immunoblot (B) or immunofluorescence (C) analyses. Nuclei were counterstained with DAPI (C, blue). Scale bars, 100 μm. • D MC3T3E1 cells were treated with indicated concentrations of KY‐02327 for 14 days. The mRNA level of collagen 1a (Col1a) was measured by quantitative real‐time PCR (qRT–PCR). […] The mRNA level of osteocalcin (OCN) was measured by qRT–PCR. […] (error bars), and significance was assessed using unpaired Student's t‐test.
MC3T3E1 cells and primary calvaria cells were maintained in supplemented α‐MEM. […] For quantitative real‐time PCR (qRT–PCR), total mRNAs were extracted using TRIzol (Invitrogen), complementary DNAs were prepared using Maxime PCR PreMix (iNtRON Biotechnology, Sungnam, Korea), and the qRT–PCRs were performed using SYBR Premix Ex Taq (TaKaRa, Shiga, Japan) in the StepOnePlus Real‐Time PCR machine (Thermo Fisher Scientific, Waltham, MA). […]

[2] = system: TA-100
Excerpt: (§1) Appendix Table S3. Bacterial reverse mutation assay with KY-02327
(§2) a Number of revertant colonies of treated plate/Number of revertant colonies of
(§3) vehicle control plate (Maron & Ames, 1983).
(§4) b Negative control. Vehicle: DMSO

[3] = system: TA-98
Excerpt: as §1, §2, §3, §4

[4] = biological target: CYP C29 (so in the source); probably CYP2C9) (Homo sapiens, UniProt P11712); test: Cytochrome P450 inhibition assay, C29; conditions: probe fluorogenic P450 substrates
Sequence of CYP C29 (so in the source); probably CYP2C9) (P11712 whole entry): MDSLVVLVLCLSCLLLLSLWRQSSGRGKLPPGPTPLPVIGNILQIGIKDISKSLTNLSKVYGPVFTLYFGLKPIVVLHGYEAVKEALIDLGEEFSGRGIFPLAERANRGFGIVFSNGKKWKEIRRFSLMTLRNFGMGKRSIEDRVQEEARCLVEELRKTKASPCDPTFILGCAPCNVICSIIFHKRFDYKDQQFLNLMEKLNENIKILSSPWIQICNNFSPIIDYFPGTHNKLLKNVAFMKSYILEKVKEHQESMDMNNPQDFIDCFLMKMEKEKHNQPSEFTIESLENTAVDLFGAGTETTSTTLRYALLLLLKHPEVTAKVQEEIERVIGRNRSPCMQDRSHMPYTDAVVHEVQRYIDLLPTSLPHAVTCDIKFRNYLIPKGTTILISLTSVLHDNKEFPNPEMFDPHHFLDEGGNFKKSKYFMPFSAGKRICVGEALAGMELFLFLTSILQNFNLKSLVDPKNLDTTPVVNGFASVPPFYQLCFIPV
Excerpt: Appendix Table S4. Cytochrome P450 (CYP) inhibition assay with 10 µ M KY-

[5] = biological target: Human Ether-à-go-go Related Gene (hERG) potassium channel (Homo sapiens, UniProt Q12809); test: hERG binding assay (fluorescence polarization)
Sequence of Human Ether-à-go-go Related Gene (hERG) potassium channel (Q12809 whole entry): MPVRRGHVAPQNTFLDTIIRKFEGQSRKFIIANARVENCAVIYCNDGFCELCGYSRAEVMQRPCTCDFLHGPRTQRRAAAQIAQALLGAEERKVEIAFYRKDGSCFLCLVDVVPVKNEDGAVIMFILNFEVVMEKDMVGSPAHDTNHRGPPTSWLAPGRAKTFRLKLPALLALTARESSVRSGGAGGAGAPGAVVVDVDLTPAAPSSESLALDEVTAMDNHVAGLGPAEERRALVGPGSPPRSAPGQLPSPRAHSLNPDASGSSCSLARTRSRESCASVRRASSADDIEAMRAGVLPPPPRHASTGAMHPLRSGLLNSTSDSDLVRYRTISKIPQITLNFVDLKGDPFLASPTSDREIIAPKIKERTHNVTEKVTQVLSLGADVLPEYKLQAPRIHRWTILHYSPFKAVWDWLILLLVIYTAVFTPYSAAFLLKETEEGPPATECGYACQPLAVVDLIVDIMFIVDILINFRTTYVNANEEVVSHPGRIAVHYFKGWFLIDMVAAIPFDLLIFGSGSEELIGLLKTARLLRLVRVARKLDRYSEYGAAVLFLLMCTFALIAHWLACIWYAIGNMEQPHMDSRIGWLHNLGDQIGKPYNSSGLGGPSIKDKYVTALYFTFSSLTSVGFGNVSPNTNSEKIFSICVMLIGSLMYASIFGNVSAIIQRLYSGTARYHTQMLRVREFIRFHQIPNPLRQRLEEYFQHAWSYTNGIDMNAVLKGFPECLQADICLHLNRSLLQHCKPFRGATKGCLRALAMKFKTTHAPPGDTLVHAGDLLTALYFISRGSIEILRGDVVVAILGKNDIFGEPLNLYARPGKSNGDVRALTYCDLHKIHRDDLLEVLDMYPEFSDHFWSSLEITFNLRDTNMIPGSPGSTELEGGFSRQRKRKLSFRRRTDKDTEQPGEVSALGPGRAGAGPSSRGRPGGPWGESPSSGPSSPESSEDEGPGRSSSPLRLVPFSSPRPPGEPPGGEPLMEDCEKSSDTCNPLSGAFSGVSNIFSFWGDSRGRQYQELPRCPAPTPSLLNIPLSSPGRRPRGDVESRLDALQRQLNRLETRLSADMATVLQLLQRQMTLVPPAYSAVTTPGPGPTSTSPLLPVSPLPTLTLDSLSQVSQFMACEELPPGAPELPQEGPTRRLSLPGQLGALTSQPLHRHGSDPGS

[6] = biological target: hERG potassium channel (Homo sapiens, UniProt Q12809); test: hERG binding assay (fluorescence polarization); conditions: human; 10 µM compound; fluorescence polarization
Sequence of hERG potassium channel (Q12809 whole entry): as above

[7] = system: mouse embryonic fibroblast (MEF) cells; test: qRT-PCR of pathway-specific target genes in MEF cells (off-target); format: cell-based; conditions: 12 hours
Procedure: To evaluate off‐target effects of KY‐02327, we monitored the transcriptional regulation of target genes of major cell signaling pathways in KY‐02327‐treated mouse embryonic fibroblast (MEF) cells (Appendix Table S2 and Appendix Fig S5). […] However, the target genes of other pathways were unaffected by the treatment of KY‐02327 (Appendix Fig S5B‐J). […]
on mouse embryonic fibroblast cells for 12 hours. The mRNA level of pathway-specific target genes (Appendix Table S2) was measured by quantitative real-time […]
Data Information: The data are the mean ± s.d. (error bars), and significance was assessed using unpaired Student’s t-test. [n =3]

[8] = biological target: T1, CYP1A2 (Homo sapiens, UniProt P05177); test: in vitro; conditions: probe fluorogenic P450 substrates
T1 sequence (P05177 1-516): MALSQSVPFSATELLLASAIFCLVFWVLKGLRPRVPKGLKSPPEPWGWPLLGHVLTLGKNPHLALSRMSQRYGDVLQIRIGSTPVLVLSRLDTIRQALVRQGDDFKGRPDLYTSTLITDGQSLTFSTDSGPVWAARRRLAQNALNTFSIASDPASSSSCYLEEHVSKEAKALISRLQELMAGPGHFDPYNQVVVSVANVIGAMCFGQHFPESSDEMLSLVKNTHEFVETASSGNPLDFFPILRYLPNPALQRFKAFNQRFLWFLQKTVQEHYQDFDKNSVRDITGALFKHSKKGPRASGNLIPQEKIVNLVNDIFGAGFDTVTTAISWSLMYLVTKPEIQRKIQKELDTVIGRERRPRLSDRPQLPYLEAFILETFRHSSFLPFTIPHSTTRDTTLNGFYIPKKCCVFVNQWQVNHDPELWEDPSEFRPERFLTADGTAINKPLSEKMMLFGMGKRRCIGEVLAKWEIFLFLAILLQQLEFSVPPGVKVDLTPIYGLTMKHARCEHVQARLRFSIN

[9] = biological target: CYP3A4 (Homo sapiens, UniProt P08684); test: in vitro; conditions: probe fluorogenic P450 substrates
Sequence of CYP3A4 (P08684 whole entry): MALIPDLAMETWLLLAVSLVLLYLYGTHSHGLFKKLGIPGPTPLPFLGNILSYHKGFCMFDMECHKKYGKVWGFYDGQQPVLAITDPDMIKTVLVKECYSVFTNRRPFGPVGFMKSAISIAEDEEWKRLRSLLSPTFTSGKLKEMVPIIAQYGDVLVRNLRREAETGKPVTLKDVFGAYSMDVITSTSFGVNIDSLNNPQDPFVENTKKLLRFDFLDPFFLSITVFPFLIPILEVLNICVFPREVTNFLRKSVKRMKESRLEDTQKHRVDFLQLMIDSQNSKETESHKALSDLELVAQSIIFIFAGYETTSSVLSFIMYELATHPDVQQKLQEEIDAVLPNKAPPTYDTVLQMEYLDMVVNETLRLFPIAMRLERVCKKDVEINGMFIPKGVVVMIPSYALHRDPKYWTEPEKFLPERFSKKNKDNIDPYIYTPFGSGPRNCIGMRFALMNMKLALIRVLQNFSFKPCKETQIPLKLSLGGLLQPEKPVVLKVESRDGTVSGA

## CCOC(=O)c1cc2cc(O)ccc2n1CC(=O)NCCN1CCCCC1 [KY‐02327]
[1]; 14 days
  mRNA level of collagen 1a (Col1a): increased
[1]; 21 days
  mRNA level of osteocalcin (OCN): increased
[2]; TA-100, With S-9 mix
  Factor (revertant colonies treated plate / vehicle control plate): 1.0
[2]; TA-100, With S-9 mix, dose (g/plate): KY-02327 1000, B.P 2
  Revertant colonies/plate (Mean): 117 ± 8 colonies/plate
[2]; TA-100, Without S-9 mix
  Factor (revertant colonies treated plate / vehicle control plate): 1.0
[2]; TA-100, Without S-9 mix, dose (g/plate): KY-02327 1000, S.A 1
  Revertant colonies/plate (Mean): 123 ± 6 colonies/plate
[3]; TA-98, Without S-9 mix
  Factor (revertant colonies treated plate / vehicle control plate): 1.0
[3]; TA-98, Without S-9 mix, dose (g/plate): KY-02327 1000, 2-NF 1
  Revertant colonies/plate (Mean): 19 colonies/plate
[3]; TA-98 and TA-100
  genetic toxicity in bacterial reverse mutation assay: no genetic toxicity
[4]
  inhibition at 10 µM: 0%
[5]
  cardiotoxicity (hERG potassium channel inhibition test): did not show any significant cardiotoxicity
[6]
  inhibition at 10 µM: 10.9 ± 2.07%
[7]
  mRNA levels of Wnt/β‐catenin target genes: significantly increased
  target genes of other pathways (off-target): unaffected
[8]
  inhibition at 10 µM: 0%
[9]
  inhibition at 10 µM: 0%
